Source: patent publication US11690810B2, “Combination treatment of bacterial infection” (The Chinese University of Hong Kong, priority 2018, dated 2023)

Assays:
Assay in all cases: MIC and checkerboard (FIC) assay
[1] = system: clinical fusidic acid resistant MRSA strain 82356; type: cell-based, Staphylococcus aureus; settings: for FIC / MIC combine: 82356
CA MRSA W45 = settings: W45
CA MRSA W46 = settings: W46
CA MRSA W47 = settings: W47
CA MRSA W48 = settings: W48
HA MRSA W231 = system: HA MRSA W231
HA MRSA W234 = settings: W234

## C=C(C)[C@H](CC=C(C)C)Cc1c(O)cc(OC)c(C(=O)/C=C/c2ccc(O)cc2O)c1O [Kuraridin]
[1]; 82356 (fusidic acid resistant)
  MIC alone: 8 µg/mL
[1]; ECG+Kur+Fus
  FIC: 0.25
  MIC combine: 4 µg/mL
[1]; ECG+Kur, no Fus
  FIC: 0.5
  MIC combine: 4 µg/mL
CA MRSA W45
  MIC alone: 8 µg/mL
CA MRSA W45; ECG with Kur
  FIC: 0.5
  MIC combine: 4 µg/mL
CA MRSA W45; ECG+Kur+Van
  FIC: 0.25
  MIC combine: 2 µg/mL
CA MRSA W45; Table 5
  MIC alone: 8 µg/mL
CA MRSA W46
  MIC alone: 8 µg/mL
CA MRSA W46; ECG with Kur
  FIC: 0.5
  MIC combine: 4 µg/mL
CA MRSA W46; ECG+Kur+Van
  FIC: 0.5
  MIC combine: 4 µg/mL
CA MRSA W46; Table 5
  MIC alone: 8 µg/mL
CA MRSA W47
  MIC alone: 8 µg/mL
CA MRSA W47; ECG with Kur
  FIC: 0.5
  MIC combine: 4 µg/mL
CA MRSA W47; ECG+Kur+Van
  FIC: 0.25
  MIC combine: 2 µg/mL
CA MRSA W47; Table 5
  MIC alone: 8 µg/mL
CA MRSA W48
  MIC alone: 8 µg/mL
CA MRSA W48; ECG with Kur
  FIC: 0.5
  MIC combine: 4 µg/mL
CA MRSA W48; ECG+Kur+Van
  FIC: 0.25
  MIC combine: 2 µg/mL
CA MRSA W48; Table 5
  MIC alone: 8 µg/mL
HA MRSA W231; W231
  MIC alone: 4 µg/mL
HA MRSA W231; W231 (gentamicin resistant)
  MIC alone: 8 µg/mL
HA MRSA W231; W231, ECG with Kur
  FIC: 0.25
  MIC combine: 1 µg/mL
HA MRSA W231; W231, ECG+Kur+Gen
  FIC: 0.25
  MIC combine: 2 µg/mL
HA MRSA W231; W231, ECG+Kur+Van
  FIC: 0.125
  MIC combine: 1 µg/mL
HA MRSA W231; W231, ECG+Kur, no Gen
  FIC: 0.25
  MIC combine: 2 µg/mL
HA MRSA W231; W231, Table 5
  MIC alone: 8 µg/mL
HA MRSA W234
  MIC alone: 8 µg/mL
HA MRSA W234; ECG with Kur
  FIC: 0.5
  MIC combine: 4 µg/mL
